Here are results for 14 molecules from ChEMBL document CHEMBL1128765, “Growth inhibitory effect of naphthofuran and naphthofuranquinone derivatives on Trypanosoma cruzi epimastigotes” (Bioorg Med Chem Lett, 1995).

Assay [1] relates to Trypanosoma cruzi. Briefly: In vitro for antitrypanosomal activity against Trypanosoma cruzi epimastigote, Ystrain. In kind it is functional, organism-based.
Assay [2] concerns Trypanosoma cruzi. Briefly: In vitro for antitrypanosomal activity against Trypanosoma cruzi epimastigote, SC-28 strain. In kind it is functional, organism-based.
Assay [3] relates to Trypanosoma cruzi. Briefly: In vitro antitrypanosomal activity against Trypanosoma cruzi epimastigote, CL strain. In kind it is functional, organism-based.
The test system of assay [4] is Trypanosoma cruzi. Nature of the assay: Percent inhibition of growth against Trypanosoma cruzi epimastigotes, Y strain at concentration 4 ug/ml (13-17 uM). The following applies: read-out: GI. The assay is classed as functional.

Structures are written as SMILES.

For the molecule `COc1ccc2c(c1)C(=O)c1cc(C(C)O)oc1C2=O` (configuration not stated), the IC50 in the assay on Trypanosoma cruzi [1] worked out at 2820 nM; in the assay on Trypanosoma cruzi [2] it was 3050 nM; in the assay with Trypanosoma cruzi [3], 2650 nM. Further, the inhibition of growth at 4 µg/mL with Trypanosoma cruzi [4] was 100%.

For `COc1ccc2c(c1)C(c1ccco1)OC2=O` (configuration not stated), the inhibition of growth at 4 µg/mL with Trypanosoma cruzi [4] is 18%.

With `COc1ccc2c(c1)C(c1ccc(C(C)=O)o1)OC2=O` (configuration not stated), in the assay on Trypanosoma cruzi [4], the inhibition of growth at 4 µg/mL came to 17%.

With `O=C(Cn1ccnc1[N+](=O)[O-])NCc1ccccc1` [BENZNIDAZOLE], the results for the IC50 in the assay on Trypanosoma cruzi [1], with Trypanosoma cruzi [2] and with Trypanosoma cruzi [3] were 8050 nM, 8970 nM and 8950 nM, respectively. Besides, the inhibition of growth at 4 µg/mL in the assay on Trypanosoma cruzi [4] came out at 100%.

For the molecule `COc1ccc2c(c1)C(=O)c1oc(C(C)=O)cc1C2=O`, the IC50 in the assay with Trypanosoma cruzi [1] came out at 490 nM; in the assay on Trypanosoma cruzi [2], 570 nM; in the assay with Trypanosoma cruzi [3], 530 nM. For the same molecule, the inhibition of growth at 4 µg/mL in the assay on Trypanosoma cruzi [4] was found to be 100%.

As to `COc1ccc2c(c1OC)C(=O)c1oc(C(C)=O)cc1C2=O`, the inhibition of growth at 4 µg/mL in the assay with Trypanosoma cruzi [4] was determined as 45%.

With `COc1cccc2c1C(c1ccco1)OC2=O` (configuration not stated), the inhibition of growth at 4 µg/mL in the assay with Trypanosoma cruzi [4] was 19%.

For the molecule `COc1ccc(C(=O)O)c(Cc2ccco2)c1`, in the assay with Trypanosoma cruzi [4], the inhibition of growth at 4 µg/mL came out at 0%.

Turning to `CC1CS(=O)(=O)CCN1/N=C/c1ccc([N+](=O)[O-])o1` (configuration not stated) [NIFURTIMOX], the results for the half-maximal inhibitory concentration (IC50) with Trypanosoma cruzi [1], in the assay with Trypanosoma cruzi [2] and in the assay with Trypanosoma cruzi [3] were 3290 nM, 3550 nM and 3810 nM, respectively. For the same molecule, the inhibition of growth at 4 µg/mL in the assay on Trypanosoma cruzi [4] is 100%.

Regarding `COc1ccc2c(c1OC)C(=O)c1occc1C2=O`, the inhibition of growth at 4 µg/mL with Trypanosoma cruzi [4] is 25%.

Regarding `COc1ccc2c(c1OC)C(=O)c1oc(C(C)O)cc1C2=O` (configuration not stated), in the assay on Trypanosoma cruzi [4], the inhibition of growth at 4 µg/mL was determined as 22%.

`COc1ccc2c(OC(C)=O)c3cc(C(C)=O)oc3cc2c1`: the IC50 is 1920 nM with Trypanosoma cruzi [1], 2170 nM in the assay with Trypanosoma cruzi [2] and 1860 nM in the assay with Trypanosoma cruzi [3]. Further, in the assay on Trypanosoma cruzi [4], the inhibition of growth at 4 µg/mL amounted to 100%.

As to `O=C1C(=O)c2ccoc2-c2ccccc21`, the IC50 in the assay on Trypanosoma cruzi [1] worked out at 3020 nM; in the assay with Trypanosoma cruzi [2], 2800 nM; with Trypanosoma cruzi [3], 2550 nM. Moreover, the inhibition of growth at 4 µg/mL with Trypanosoma cruzi [4] amounted to 100%.

`COc1ccc2c(c1OC)C(=O)c1ccoc1C2=O`: the inhibition of growth at 4 µg/mL with Trypanosoma cruzi [4] amounted to 45%.

For orientation: IC50 means the concentration needed to halve the response being measured.
